Consider 17 molecules from paper PMC10976095 (Vaccines, 2024).

Where a SMILES comes first, the peptide text is derived from it.

Assay [1] has as its target HLA-B*40:01 (Homo sapiens, UniProt P01889, A65T/A93T/A95T/D138N/D98Y/E176V/E69K/N87E/Q56L/Q94N/R180L/S121R/S35A/S48T/T167S/V36M/W171L/Y33H/Y91S). The assay is described as follows: biochemical. It is filed as binding.
For assay [2], the target named is HLA-B*44:02 (Homo sapiens, UniProt P01889, A223V/A65T/A93T/A95T/D201E/D98Y/E176V/E187L/E204Q/E69K/G107R/H137Y/K202T/L105A/L119I/N104T/N87E/Q56L/Q94N/R106L/R155S/R180D/S101N/S121R/S35A/S48T/T118I/V36M/W191S/Y140D/Y91S). Put plainly: biochemical. Type of assay: binding.
The target of assay [3] is HLA-A*02:01 (Homo sapiens, UniProt P04439, D140Y/D185E/D98H/E176V/E277Q/G131W/G231S/I119V/I121R/I166T/I218V/L300P/L318F/N151K/N90K/P208A/P217A/Q86G/Q94H/R138H/R169H/T345S). The assay is described as follows: biochemical. It is filed as binding.
The target in assay [4] is HLA-A*02:06 (Homo sapiens, UniProt P04439, D140Y/D185E/D98H/E176V/E277Q/F33Y/G131W/G231S/I119V/I121R/I166T/I218V/L300P/L318F/N151K/N90K/P208A/P217A/Q86G/Q94H/R138H/R169H/T345S). Put plainly: biochemical. It is filed as binding.
Assay [5] addresses HLA-A*02:03 (Homo sapiens, UniProt P04439, A173T/D140Y/D185E/D98H/E277Q/G131W/G231S/I119V/I121R/I166T/I218V/L180W/L300P/L318F/N151K/N90K/P208A/P217A/Q86G/Q94H/R138H/R169H/T345S). The assay is described as follows: biochemical. It is filed as binding.
Assay [6] deals with HLA-B*15:01 (Homo sapiens, UniProt P01889, A329T/A93T/A95T/C349S/D201E/D98Y/E187L/E204Q/E69M/E70A/K202T/N87E/Q94N/R155S/R180W/S121R/S35A/S48A/V306I/V36M/Y140S/Y91S). Put plainly: biochemical. Type of assay: binding.
Assay [7] has as its target HLA-A*23:01 (Homo sapiens, UniProt P04439, D101N/D140Y/D185E/E176V/E190D/F33S/G103R/G107R/H175R/I119L/I121M/I306V/K168Q/K335N/L105A/L300P/N151K/N90K/P307H/Q86E/Q94H/R106L/R138H/R89G/T104I/T345S/V100E/W191G/Y123F). Put plainly: biochemical. It is filed as binding.
Assay [8] addresses HLA-A*68:02 (Homo sapiens, UniProt P04439, A269V/D140Y/D185E/E176V/E277Q/E87N/F33Y/G231S/I121R/I166T/I218V/L180W/L300P/L318F/N151K/P208A/P217A/Q86R/R138H/R169H/S129P/T345S/V36M). The assay is described as follows: biochemical. Type of assay: binding.
In assay [9] the target is HLA-A*32:01 (Homo sapiens, UniProt P04439, A270S/D101S/D185E/E176V/E277Q/F133L/G103R/G107R/G231S/H175R/I121M/I218V/I322F/K168Q/L105A/L300P/L318F/M331R/P208A/P217A/Q94H/R106L/R138Q/S129P/T104I/T323A/T345S/V100E/V321M/V358M). The assay is described as follows: biochemical. It is filed as binding.
Assay [10] deals with HLA-A*30:01 (Homo sapiens, UniProt P04439, D140H/D185E/E176W/F33S/G80R/H175R/K168Q/R138E/R41S). Put plainly: biochemical. It is filed as binding.
Assay [11] deals with HLA-B*27:05 (Homo sapiens, UniProt P01889, D138H/D201E/E176V/E204Q/G107R/H137Y/K202T/N104T/N87E/Q56L/Q94K/R106L/R155S/R180L/S101D/S121N/S48T/Y140D/Y33H/Y91C). Put plainly: biochemical. Type of assay: binding.
Assay [12] addresses HLA-A*03:01 (Homo sapiens, UniProt P04439). Put plainly: biochemical. It is filed as binding.
Assay [13] has as its target HLA-B*08:01 (Homo sapiens, UniProt P01889, A93T/A95T/D138N/E176V/E187T/K202T/Q94N/R180D/S35A/V36M/Y33D/Y91F). Put plainly: biochemical. Type of assay: binding.
For assay [14], the target named is HLA-B*07:02 (Homo sapiens, UniProt P01889). Put plainly: biochemical. Type of assay: binding.
Assay [15] addresses HLA-A*24:02 (Homo sapiens, UniProt P04439, D101N/D140Y/D185E/E176V/E190D/F33S/G103R/G107R/I119L/I121M/I306V/K335N/L105A/L180Q/L300P/N151K/N90K/Q86E/Q94H/R106L/R138H/R89G/T104I/T345S/V100E/W191G/Y123F). The assay is described as follows: biochemical. Type of assay: binding.
Assay [16] addresses HLA-A*30:02 (Homo sapiens, UniProt P04439, D101N/D140H/D185E/E176R/F33S/G80R/H175R/K168Q/Q94H/R138E/R41S/V100E). Put plainly: biochemical. It is filed as binding.
The test system of assay [17] is Mafa-A63:02 MHC class I molecules. It is filed as binding, Macaca fascicularis.

Usually IC50 stands for the concentration at which inhibition is half-maximal. Read a low IC50 as higher potency. Consider `CC(C)[C@H](NC(=O)[C@H](CCCNC(=N)N)NC(=O)[C@H](C)NC(=O)[C@H](Cc1ccccc1)NC(=O)[C@@H]1CCCN1C(=O)[C@H](C)NC(=O)[C@H](Cc1ccc(O)cc1)NC(=O)[C@H](CCC(=O)O)NC(=O)CN)C(=O)O` (H-GEYAPFARV-OH), for which the IC50 in assay [1] was found to be 107 nM; in [2], 214 nM.

For `CC[C@H](C)[C@H](NC(=O)[C@H](C)NC(=O)[C@H](CO)NC(=O)[C@H](CC(C)C)NC(=O)[C@H](CCC(N)=O)NC(=O)[C@@H]1CCCN1C(=O)[C@H](Cc1ccc(O)cc1)NC(=O)[C@H](CC(C)C)NC(=O)CN)C(=O)O` (H-GLYPQLSAI-OH), the IC50 was found to be 5.9 nM in [3], 6.9 nM in [4] and 1.4 nM in [5].

As to `CC(C)C[C@H](NC(=O)[C@H](CCC(N)=O)NC(=O)[C@@H]1CCCN1C(=O)[C@H](Cc1ccc(O)cc1)NC(=O)[C@H](CC(C)C)NC(=O)CNC(=O)[C@H](Cc1c[nH]cn1)NC(=O)[C@H](CCC(=O)O)NC(=O)[C@@H](N)CC(C)C)C(=O)O` (H-LEHGLYPQL-OH), the figures for the IC50 in assay [1] and in assay [2] were 14 nM and 3.4 nM, respectively.

As for `CC[C@H](C)[C@H](NC(=O)[C@@H](N)CC(C)C)C(=O)N[C@H](C(=O)N[C@@H](CCCCN)C(=O)N[C@H](C(=O)N[C@H](C(=O)N[C@@H](CC(C)C)C(=O)N[C@@H](CCC(=O)O)C(=O)N[C@@H](Cc1ccccc1)C(=O)O)C(C)C)[C@@H](C)O)C(C)C` (H-LIVKTVLEF-OH), the IC50 in assay [6] was found to be 0.8 nM; in assay [7] it was 109 nM.

Turning to `CC[C@H](C)[C@H](NC(=O)[C@H](C)NC(=O)[C@H](CO)NC(=O)[C@H](CC(C)C)NC(=O)[C@@H](N)CCC(N)=O)C(=O)N[C@@H](C)C(=O)N[C@@H](CC(C)C)C(=O)NCC(=O)N[C@H](C(=O)O)C(C)C` (H-QLSAIALGV-OH), the IC50 worked out at 3.9 nM in assay [3]; 12 nM in assay [4]; 11 nM in assay [8]; 81 nM in [9]; 4.4 nM in [5].

On to `CC[C@H](C)[C@H](NC(=O)[C@H](CC(C)C)NC(=O)[C@H](CC(C)C)NC(=O)CNC(=O)[C@H](CO)NC(=O)[C@H](Cc1ccccc1)NC(=O)[C@H](CCCNC(=N)N)NC(=O)[C@@H](NC(=O)[C@@H](N)CCC(N)=O)[C@@H](C)O)C(=O)N[C@H](C(=O)O)C(C)C` (H-QTRFSGLLIV-OH), for which the IC50 in [6] worked out at 4680 nM; in assay [10], 421 nM; in assay [11], 533 nM.

`CC[C@H](C)[C@H](NC(=O)[C@H](Cc1ccccc1)NC(=O)[C@H](CCC(=O)O)NC(=O)[C@H](CC(C)C)NC(=O)[C@@H](NC(=O)[C@@H](N)[C@@H](C)O)C(C)C)C(=O)N[C@@H](CC(C)C)C(=O)N[C@@H](CCC(N)=O)C(=O)N[C@@H](CCCCN)C(=O)O` (H-TVLEFILQK-OH): the IC50 is 365 nM in [10] and 19 nM in [12].

For the molecule `CC(C)C[C@H](NC(=O)[C@H](CC(N)=O)NC(=O)[C@H](CC(C)C)NC(=O)[C@@H](NC(=O)[C@H](CCCNC(=N)N)NC(=O)[C@H](C)NC(=O)[C@H](Cc1ccccc1)NC(=O)[C@@H]1CCCN1C(=O)[C@H](C)N)C(C)C)C(=O)O` [AL9] (H-APFARVLNL-OH), the IC50 was 67 nM in [13] and 0.21 nM in [14].

`CC[C@H](C)[C@H](NC(=O)[C@H](CC(C)C)NC(=O)[C@@H]1CCCN1C(=O)[C@H](CO)NC(=O)[C@H](Cc1ccc(O)cc1)NC(=O)[C@@H](N)Cc1c[nH]cn1)C(=O)N[C@@H](CC(C)C)C(=O)N[C@@H](C)C(=O)N[C@@H](CC(C)C)C(=O)O` [HL9] (H-HYSPLILAL-OH) returned a half-maximal inhibitory concentration (IC50) in [15] of 64 nM.

With `CC(C)[C@H](NC(=O)[C@H](CCC(=O)O)NC(=O)[C@H](CC(N)=O)NC(=O)[C@H](CCCCN)NC(=O)[C@@H](NC(=O)[C@@H](N)CCCCN)C(C)C)C(=O)N[C@@H](C)C(=O)N[C@@H](CO)C(=O)N[C@@H](Cc1ccccc1)C(=O)O` [KF9] (H-KVKNEVASF-OH), the IC50 in assay [6] came out at 5.6 nM; in assay [16] it was 158 nM; in [9], 2.9 nM.

On to `CC[C@H](C)[C@H](NC(=O)[C@H](C)NC(=O)[C@H](CO)NC(=O)[C@H](CC(C)C)NC(=O)[C@H](CCC(N)=O)NC(=O)[C@@H]1CCCN1C(=O)[C@H](Cc1ccc(O)cc1)NC(=O)[C@@H](N)CC(C)C)C(=O)N[C@@H](C)C(=O)N[C@@H](CC(C)C)C(=O)O` [LYPQLSAIAL, reference compound] (H-LYPQLSAIAL-OH), for which, in assay [14], the IC50 amounted to 134 nM.

`CC(C)C[C@H](NC(=O)[C@H](Cc1ccccc1)NC(=O)[C@H](CC(C)C)NC(=O)[C@H](CO)NC(=O)[C@H](CS)NC(=O)[C@H](Cc1ccccc1)NC(=O)[C@H](CO)NC(=O)[C@H](CC(C)C)NC(=O)[C@@H](N)Cc1ccccc1)C(=O)O` [reference compound] (H-FLSFCSLFL-OH): the figures for the IC50 in [3], in assay [4] and in assay [5] were 1.8 nM, 121 nM and 29 nM, respectively.

For `CC(C)C[C@H](NC(=O)[C@H](CO)NC(=O)[C@H](CS)NC(=O)[C@H](Cc1ccccc1)NC(=O)[C@H](CO)NC(=O)[C@H](CC(C)C)NC(=O)[C@H](Cc1ccccc1)NC(=O)[C@@H](N)CC(C)C)C(=O)N[C@@H](Cc1ccccc1)C(=O)O` [reference compound] (H-LFLSFCSLF-OH), the results for the IC50 in assay [7] and in assay [15] were 33 nM and 633 nM, respectively.

For the molecule `CC[C@H](C)[C@H](NC(=O)[C@H](CC(C)C)NC(=O)[C@@H](N)CC(C)C)C(=O)N[C@H](C(=O)N[C@@H](CCCCN)C(=O)N[C@H](C(=O)N[C@H](C(=O)N[C@@H](CC(C)C)C(=O)O)C(C)C)[C@@H](C)O)C(C)C` [reference compound] (H-LLIVKTVL-OH), the IC50 in [13] stood at 6.1 nM.

In the case of GPRKPIKCW, the “score on the t-SNE T2 axis (Mafa-A063 binding affinity and stability)” value (“score on the t-SNE T2 axis” for short) in assay [17] was “scored high”.

Regarding HPAQTSQW, the “score on the t-SNE T2 axis” value in assay [17] is “scored high”.

Take RPKVPLRTM: in assay [17], the “score on the t-SNE T2 axis” value is listed as “scored high”.
